Experimental data taken from ChEMBL document CHEMBL5154808, “Novel β-Hairpin Antimicrobial Peptides Containing the β-Turn Sequence of -RRRF- Having High Cell Selectivity and Low Incidence of Drug Resistance” (J Med Chem, 2022).
Values after ≈ are worked out from the molar mass of the structure shown. Active and inactive are the calls of the source. No cut-off for these calls is given here. Where a SMILES comes first, the peptide text is derived from it. Bridges are numbered along the chain shown (N, C = ends). [ ]: non-standard residue; d: D form. The star is where a group is joined. X1 = CC[C@H](C)CCCCC(=O)*; Dab = NCC[C@H](N)C(=O)O

Experiments:
[1] = tested on: Escherichia coli; experiment: Synergistic antibacterial activity against rifampicin-resistant Escherichia coli ATCC 25922 assessed as fractional inhibitory concentration index incubated for 18 hrs in presence of rifampicin by checker board assay; type: functional
[2] = Acute toxicity in Kunming mouse assessed as pulmonary congestion at 25 mg/kg, ip by H and E staining based analysis; type: organism-based; details: in vivo
[3] = Cytotoxicity against human HK-2 cells assessed as reduction in cell viability incubated for 1 hr by resazurin based microplate reader method; type: toxicity
[4] = tested on: Cell membrane; experiment: Induction of cytoplasmic membrane depolarization in Staphylococcus aureus ATCC 25923 assessed as increase in fluorescence intensity at 4 times MIC measured after 1 min by DiSC3-5 dye based fluorescence method; type: subcellular
[5] = Acute toxicity in ip dosed Kunming mouse assessed as lethal dose; type: organism-based; details: in vivo
[6] = tested on: Erythrocyte; experiment: Hemolytic activity in mouse red blood cells assessed as release of hemoglobin incubated for 1 hr by microplate reader method; type: toxicity, cell-based
[7] = Acute toxicity in Kunming mouse assessed as distortion of alveolar morphology at 25 mg/kg, ip by H and E staining based analysis; type: organism-based; details: in vivo
[8] = Acute toxicity in Kunming mouse assessed as swollen kidney cells at 25 mg/kg, ip by H and E staining based analysis; type: organism-based; details: in vivo
[9] = Acute toxicity in Kunming mouse assessed as respiratory depression in lungs by measuring mortality at 19 to 30 mg/kg, ip within 1 hr; type: organism-based; details: in vivo, dose 19-30 mg/kg
[10] = tested on: Staphylococcus aureus; experiment: Synergistic antibacterial activity against rifampicin-resistant Staphylococcus aureus ATCC 25923 assessed as fractional inhibitory concentration index incubated for 18 hrs in presence of rifampicin by checker board assay; type: functional
[11] = tested on: Escherichia coli; experiment: Antimicrobial activity against Escherichia coli ATCC 25922 assessed as breakage of cell membrane measured after 4 hrs by SEM analysis; type: functional, organism-based
[12] = tested on: Escherichia coli; experiment: Synergistic antibacterial activity against kanamycin-resisitant Escherichia coli ATCC 25922 assessed as fractional inhibitory concentration index incubated for 18 hrs in presence of kanamycin by checker board assay; type: functional
[13] = tested on: Escherichia coli; experiment: Synergistic antibacterial activity against meropenem-resistant Escherichia coli ATCC 25922 assessed as fractional inhibitory concentration index incubated for 18 hrs in presence of meropenem by checker board assay; type: functional
[14] = tested on: Enterococcus faecalis; experiment: Antimicrobial activity against Enterococcus faecalis ATCC 29212 assessed as reduction of bacterial growth incubated for 18 hrs by CLSI protocol based broth microdilution method; type: functional
[15] = tested on: Escherichia coli; experiment: Antimicrobial activity against Escherichia coli ATCC 25922 assessed as reduction of bacterial growth incubated for 18 hrs by CLSI protocol based broth microdilution method; type: functional
[16] = tested on: Pseudomonas aeruginosa; experiment: Antimicrobial activity against Pseudomonas aeruginosa ATCC 27853 assessed as reduction of bacterial growth incubated for 18 hrs by CLSI protocol based broth microdilution method; type: functional
[17] = tested on: Cell membrane; experiment: Induction of cytoplasmic membrane depolarization in Pseudomonas aeruginosa ATCC 27853 assessed as increase in fluorescence intensity at 1 to 4 times MIC measured after 1 min by DiSC3-5 dye based fluorescence method; type: subcellular
[18] = tested on: Bacillus subtilis; experiment: Antimicrobial activity against Bacillus subtilis ATCC 23857 assessed as reduction of bacterial growth incubated for 18 hrs by CLSI protocol based broth microdilution method; type: functional
[19] = tested on: Cell membrane; experiment: Induction of inner membrane permeabilization in Escherichia coli ML-35 ATCC 43587 at 1 to 4 times MIC by ONPG based assay; details: DDE = dose-dependent effect
[20] = tested on: Lipopolysaccharide (LPS); experiment: Binding affinity to LPS (unknown origin) assessed as reduction in bactericidal activity against Escherichia coli ATCC 25922 at 2 times MIC incubated for 2 hrs in presence of 32 ug/ml of LPS by competitive binding assay
[21] = tested on: Staphylococcus aureus; experiment: Bactericidal activity against Staphylococcus aureus ATCC 25923 assessed as time required to kill bacteria at 2 times MIC by time-killing assay; type: functional
[22] = Acute toxicity in Kunming mouse assessed as increased interalveolar space at 25 mg/kg, ip by H and E staining based analysis; type: organism-based; details: in vivo
[23] = tested on: Staphylococcus epidermidis; experiment: Antimicrobial activity against Staphylococcus epidermidis ATCC 12228 assessed as reduction of bacterial growth incubated for 18 hrs by CLSI protocol based broth microdilution method; type: functional
[24] = tested on: Cell membrane; experiment: Induction of cytoplasmic membrane depolarization in […] assessed as increase in fluorescence intensity at 1 to 4 times MIC measured after 1 min by DiSC3-5 dye based fluorescence method; type: subcellular
[25] = tested on: Staphylococcus aureus; experiment: Antimicrobial activity against Staphylococcus aureus ATCC 25923 assessed as reduction of bacterial growth incubated for 18 hrs by CLSI protocol based broth microdilution method; type: functional
[26] = tested on: Klebsiella pneumoniae; experiment: Antimicrobial activity against Klebsiella pneumoniae ATCC 700603 assessed as reduction of bacterial growth incubated for 18 hrs by CLSI protocol based broth microdilution method; type: functional
[27] = tested on: Escherichia coli; experiment: Antimicrobial activity against Escherichia coli ATCC 25922 assessed as swollen cell membrane measured after 0.5 to 2 hrs by SEM analysis; type: functional, organism-based; details: time 0.5-2 hrs
[28] = tested on: Staphylococcus aureus; experiment: Antibacterial activity against Staphylococcus aureus ATCC 25923 infected in BALB/c mouse assessed as reduction in bacterial load in lung at 5 to 10 mg/kg, ip measured after 4 to 12 hrs (reference value: 5.6 x 10^6 CFU/g); type: functional; details: dose 5-10 mg/kg, time 4-12 hrs
[29] = tested on: Staphylococcus aureus; experiment: Induction of drug resistance in Staphylococcus aureus ATCC 25923 assessed as increase in MIC after 10 passages by CLSI protocol based broth microdilution method; type: functional

SMILES: CC[C@H](C)CCCCC(=O)N[C@@H](CCN)C(=O)N[C@H](C(=O)N[C@@H](CCN)C(=O)N[C@H]1CCNC(=O)[C@H]([C@@H](C)O)NC(=O)[C@H](CCN)NC(=O)[C@H](CCN)NC(=O)[C@H](CC(C)C)NC(=O)[C@@H](Cc2ccccc2)NC(=O)[C@H](CCN)NC1=O)[C@@H](C)O (X1-[Dab]T[Dab][Dab][Dab][dF]L[Dab][Dab]T; lactam 4-C)
- fractional inhibitory concentration index (FICI) [1]: 0.3125
- Activity [2]: Toxic
- CC50 at 1 h [3]: > 128 µM
- Activity [4]: Active
- LD50 [5]: 25.5 mg/kg
- HC10 [6]: > 256 µM
- Activity [7]: Toxic
- Activity [8]: Toxic
- Activity [9]: Toxic
- fractional inhibitory concentration index (FICI) [10]: 0.75
- Activity [11]: Active
- fractional inhibitory concentration index (FICI) [12]: 0.25
- fractional inhibitory concentration index (FICI) [13]: 1.25
- MIC [14]: 128 µM (≈ 154 µg/mL)
- MIC [15]: 4 µM (≈ 4.81 µg/mL)
- MIC [16]: 2 µM (≈ 2.41 µg/mL)
- Activity [17]: Active
- MIC [18]: 4 µM (≈ 4.81 µg/mL)
- Activity [19]: Dde
- Activity [20]: Active
- Time [21]: 6 h
- Activity [22]: Toxic
- MIC [23]: 16 µM (≈ 19.3 µg/mL)
- Activity [24]: Active
- MIC [25]: 16 µM (≈ 19.3 µg/mL)
- MIC [26]: 4 µM (≈ 4.81 µg/mL)
- Activity [27]: Active
- Activity [28]: 0 CFU/g
- Activity [29]: Active
